Tests used:
Assay in all cases: Test G pre/postemergence
Type in all cases: in vivo
[1] = tested on: annual bluegrass (Poa annua)
Outline: (§1)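 Test chemicals in a non-phytotoxic solvent blend with surfactant are applied to soil after seeding or to foliage of 2–18 cm seedlings. Greenhouse response is scored visually at 12–21 days on a 0 to 100 control scale.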

[2] = tested on: dallisgrass (Paspalum dilatatum)
Outline: as §1

[3] = tested on: broadleaf signalgrass (Brachiaria platyphylla)
Outline: as §1

[4] = tested on: Surinam grass (Brachiaria decumbens)
Outline: as §1

[5] = tested on: barnyardgrass (Echinochloa crus-galli)
Outline: as §1

[6] = tested on: bermudagrass (Cynodon dactylon)
Outline: as §1

[7] = tested on: itchgrass (Rottboellia cochinchinensis)
Outline: as §1

[8] = tested on: johnsongrass (Sorghum halepense); conditions: Preemergence, scale 0-100
Outline: as §1

[9] = Postemergence, 250 g ai/ha, scale 0 to 100
[10] = Postemergence, 16 g ai/ha, scale 0 to 100
[11] = Postemergence, 31 g ai/ha, scale 0 to 100
[12] = Postemergence, 62 g ai/ha, scale 0 to 100
[13] = Postemergence, 125 g ai/ha, scale 0 to 100
[14] = Preemergence, 16 g ai/ha, scale 0-100
[15] = Preemergence, 31 g ai/ha, scale 0-100
[16] = Preemergence, 62 g ai/ha, scale 0-100
[17] = Preemergence, 125 g ai/ha, scale 0-100
[18] = Preemergence, 250 g ai/ha, scale 0-100

Question: With `Nc1nc(C2CC2)nc(C(=O)OCc2ccccc2)c1Br` [Compound 22, phenylmethyl 6-amino-5-bromo-2-cyclopropyl-4-pyrimidinecarboxylate] as the compound, how does the “Plant response rating, Bluegrass” value [1, 9] read?
Answer: 75

Question: What about the “Plant response rating, Bluegrass” value [1, 10] of the same compound?
Answer: 0

Question: And the “Plant response rating, Bluegrass” value [1, 11]?
Answer: 0

Question: What about the “Plant response rating, Bluegrass” value [1, 12] of the same compound?
Answer: 15

Question: And the “Plant response rating, Bluegrass” value [1, 13]?
Answer: 40

Question: And the “Plant response rating, Bluegrass” value [1, 14]?
Answer: 0

Question: What about the “Plant response rating, Bluegrass” value [1, 15] of the same compound?
Answer: 0

Question: What about the “Plant response rating, Bluegrass” value [1, 16] of the same compound?
Answer: 0

Question: What about the “Plant response rating, Bluegrass” value [1, 17] of the same compound?
Answer: 30

Question: And the “Plant response rating, Bluegrass” value [1, 18]?
Answer: 60

Question: What about the “Plant response rating, Dallisgrass” value [2, 9] of the same compound?
Answer: 75

Question: What about the “Plant response rating, Dallisgrass” value [2, 10] of the same compound?
Answer: 0

Question: And the “Plant response rating, Dallisgrass” value [2, 11]?
Answer: 0

Question: And the “Plant response rating, Dallisgrass” value [2, 12]?
Answer: 15

Question: And the “Plant response rating, Dallisgrass” value [2, 13]?
Answer: 25

Question: What about the “Plant response rating, Dallisgrass” value [2, 14] of the same compound?
Answer: 0

Question: And the “Plant response rating, Dallisgrass” value [2, 15]?
Answer: 0

Question: What about the “Plant response rating, Dallisgrass” value [2, 16] of the same compound?
Answer: 0

Question: What about the “Plant response rating, Dallisgrass” value [2, 17] of the same compound?
Answer: 40

Question: What about the “Plant response rating, Dallisgrass” value [2, 18] of the same compound?
Answer: 50

Question: And the “Plant response rating, Signalgrass” value [3, 9]?
Answer: 85

Question: And the “Plant response rating, Signalgrass” value [3, 10]?
Answer: 5

Question: What about the “Plant response rating, Signalgrass” value [3, 11] of the same compound?
Answer: 15

Question: And the “Plant response rating, Signalgrass” value [3, 12]?
Answer: 25

Question: And the “Plant response rating, Signalgrass” value [3, 13]?
Answer: 50

Question: And the “Plant response rating, Signalgrass” value [3, 14]?
Answer: 0

Question: What about the “Plant response rating, Signalgrass” value [3, 15] of the same compound?
Answer: 0

Question: And the “Plant response rating, Signalgrass” value [3, 16]?
Answer: 0

Question: What about the “Plant response rating, Signalgrass” value [3, 17] of the same compound?
Answer: 10

Question: What about the “Plant response rating, Signalgrass” value [3, 18] of the same compound?
Answer: 80

Question: And the “Plant response rating, Surinam Grass” value [4, 9]?
Answer: 95

Question: And the “Plant response rating, Surinam Grass” value [4, 10]?
Answer: 0

Question: What about the “Plant response rating, Surinam Grass” value [4, 11] of the same compound?
Answer: 15

Question: What about the “Plant response rating, Surinam Grass” value [4, 12] of the same compound?
Answer: 35

Question: What about the “Plant response rating, Surinam Grass” value [4, 13] of the same compound?
Answer: 65

Question: What about the “Plant response rating, Surinam Grass” value [4, 14] of the same compound?
Answer: 0

Question: And the “Plant response rating, Surinam Grass” value [4, 15]?
Answer: 0

Question: What about the “Plant response rating, Surinam Grass” value [4, 16] of the same compound?
Answer: 0

Question: What about the “Plant response rating, Surinam Grass” value [4, 17] of the same compound?
Answer: 35

Question: What about the “Plant response rating, Surinam Grass” value [4, 18] of the same compound?
Answer: 90

Question: And the “Plant response rating, Barnyardgrass” value [5, 9]?
Answer: 85

Question: And the “Plant response rating, Barnyardgrass” value [5, 10]?
Answer: 0

Question: And the “Plant response rating, Barnyardgrass” value [5, 11]?
Answer: 0

Question: And the “Plant response rating, Barnyardgrass” value [5, 12]?
Answer: 15

Question: What about the “Plant response rating, Barnyardgrass” value [5, 13] of the same compound?
Answer: 25

Question: And the “Plant response rating, Barnyardgrass” value [5, 14]?
Answer: 10

Question: And the “Plant response rating, Barnyardgrass” value [5, 15]?
Answer: 20

Question: What about the “Plant response rating, Barnyardgrass” value [5, 16] of the same compound?
Answer: 30

Question: And the “Plant response rating, Barnyardgrass” value [5, 17]?
Answer: 70

Question: And the “Plant response rating, Barnyardgrass” value [5, 18]?
Answer: 80

Question: What about the “Plant response rating, Bermudagrass” value [6, 9] of the same compound?
Answer: 65

Question: And the “Plant response rating, Bermudagrass” value [6, 10]?
Answer: 15

Question: What about the “Plant response rating, Bermudagrass” value [6, 11] of the same compound?
Answer: 35

Question: And the “Plant response rating, Bermudagrass” value [6, 12]?
Answer: 35

Question: What about the “Plant response rating, Bermudagrass” value [6, 13] of the same compound?
Answer: 40

Question: And the “Plant response rating, Bermudagrass” value [6, 14]?
Answer: 0

Question: What about the “Plant response rating, Bermudagrass” value [6, 15] of the same compound?
Answer: 0

Question: And the “Plant response rating, Bermudagrass” value [6, 16]?
Answer: 0

Question: And the “Plant response rating, Bermudagrass” value [6, 17]?
Answer: 0

Question: What about the “Plant response rating, Bermudagrass” value [6, 18] of the same compound?
Answer: 30

Question: And the “Plant response rating, Itchgrass” value [7, 9]?
Answer: 85

Question: What about the “Plant response rating, Itchgrass” value [7, 10] of the same compound?
Answer: 15

Question: And the “Plant response rating, Itchgrass” value [7, 11]?
Answer: 25

Question: And the “Plant response rating, Itchgrass” value [7, 12]?
Answer: 50

Question: And the “Plant response rating, Itchgrass” value [7, 13]?
Answer: 75

Question: And the “Plant response rating, Itchgrass” value [7, 14]?
Answer: 0

Question: And the “Plant response rating, Itchgrass” value [7, 15]?
Answer: 0

Question: What about the “Plant response rating, Itchgrass” value [7, 16] of the same compound?
Answer: 20

Question: What about the “Plant response rating, Itchgrass” value [7, 17] of the same compound?
Answer: 40

Question: And the “Plant response rating, Itchgrass” value [7, 18]?
Answer: 65

Question: And the “Plant response rating, Johnsongrass” value ([8]; 16 g ai/ha)?
Answer: 0

Question: What about the “Plant response rating, Johnsongrass” value ([8]; 31 g ai/ha) of the same compound?
Answer: 0

Question: And the “Plant response rating, Johnsongrass” value ([8]; 62 g ai/ha)?
Answer: 20

Question: What about the “Plant response rating, Johnsongrass” value ([8]; 125 g ai/ha) of the same compound?
Answer: 50

Question: What about the “Plant response rating, Johnsongrass” value ([8]; 250 g ai/ha) of the same compound?
Answer: 80
